Entries after “also recorded” stand apart in the source; their conditions may differ.
How the values were obtained:
PARP-1 [1] = target: T1, PARP-1 (Mus musculus, UniProt P11103); assay: Cellular PARP-1 activity in microglia, macrophages or astrocytes; type: cell-based; design: host or cells: C8B4 microglia, C8-D1A astrocytes, Raw 264.7 macrophages
Procedure: 5A, a bar graph showing the time course of microglial PARP-1 activation by 15-oxysterols or 7-KC. PARP-1 activity is shown as Mean±SEM. […] (Mean±SEM) 5C, a bar graph showing activation of microglial PARP-1 by 15-HC in the presence of kinase inhibitors (Mean±SEM).
6A, a set of three bar graphs showing PARP-1 activity in microglia, macrophages or astrocytes activated with 15-HC in the presence of blocking antibodies to TLR2 or TLR4, or isotype controls (Mean±SEM).
PARP-1 activity was measured using PARP HT Universal Colorimetric Kit (Trevigen, MD, USA), following manufacturer instructions.
Cells were cultured with DMEM supplemented with 10% fetal bovine serum, 2 mM L-glutamine, 25 mM HEPES, and 1 mM sodium pyruvate. Cells in logarithmic growth were treated with 1 μg/ml of 15-HC for 1, 5, 15, and 30 minutes in serum-free medium. Blocking antibodies (Ebioscience, San Diego, Calif., USA) were added in some experiments at a final concentration of 10 ug/ml.

PARP-1 [2] = target: T2, PARP-1 (Homo sapiens, UniProt P09874); details: Diestel et al. 2003; cited from earlier work
Target sequence in this assay (P09874 whole entry, species assumed): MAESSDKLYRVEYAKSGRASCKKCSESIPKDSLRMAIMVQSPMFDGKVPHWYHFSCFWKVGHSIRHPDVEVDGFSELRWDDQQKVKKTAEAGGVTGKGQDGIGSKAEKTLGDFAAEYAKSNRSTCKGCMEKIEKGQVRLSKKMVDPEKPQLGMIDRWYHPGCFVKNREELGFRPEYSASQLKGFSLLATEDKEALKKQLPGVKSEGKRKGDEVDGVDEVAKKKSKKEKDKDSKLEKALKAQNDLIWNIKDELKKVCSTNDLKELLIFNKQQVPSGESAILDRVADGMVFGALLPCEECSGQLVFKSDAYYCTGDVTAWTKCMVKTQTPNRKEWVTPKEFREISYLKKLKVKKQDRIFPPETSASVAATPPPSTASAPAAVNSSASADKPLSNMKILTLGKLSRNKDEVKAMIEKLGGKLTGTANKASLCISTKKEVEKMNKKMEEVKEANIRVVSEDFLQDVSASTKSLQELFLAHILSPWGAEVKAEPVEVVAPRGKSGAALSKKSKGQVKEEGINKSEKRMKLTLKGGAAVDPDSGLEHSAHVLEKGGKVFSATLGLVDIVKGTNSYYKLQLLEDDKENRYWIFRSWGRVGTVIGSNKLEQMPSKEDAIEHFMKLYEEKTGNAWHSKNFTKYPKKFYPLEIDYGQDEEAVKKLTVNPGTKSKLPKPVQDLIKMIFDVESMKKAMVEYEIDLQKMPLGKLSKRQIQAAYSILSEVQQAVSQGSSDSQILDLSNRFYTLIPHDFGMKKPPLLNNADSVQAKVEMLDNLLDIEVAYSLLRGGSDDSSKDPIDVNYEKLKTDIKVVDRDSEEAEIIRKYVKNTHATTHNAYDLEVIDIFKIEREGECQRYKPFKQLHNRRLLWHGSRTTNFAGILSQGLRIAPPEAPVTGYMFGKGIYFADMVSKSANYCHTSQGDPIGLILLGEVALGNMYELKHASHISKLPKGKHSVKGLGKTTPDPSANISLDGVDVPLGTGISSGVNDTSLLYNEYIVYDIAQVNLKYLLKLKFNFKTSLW

[3] = system: microglia, macrophages or astrocytes; assay: TNF-α, CCL-2 and NO secretion by microglia, macrophages or astrocytes; type: cell-based, mouse; details: co-incubation with 15-HC
Procedure: FIGS. 4A-D show the results of activation of microglia, macrophages and astrocytes by 15-HC. 4A, a bar graph showing PARP-1 activity in a cell-free system where recombinant PARP-1 was incubated with DNA which as been pretreated with 15-HC or 7-KC. Non-pretreated DNA was used as a negative control and ssb-DNA as a positive control. Data is shown as Mean±SEM. 4B, a pair of bar graphs showing PARP-1 activity measured in microglia, macrophages or astrocytes incubated with 15-HC or 7-KC. The data is shown as the fold of change between vehicle and lipid-treated cells (Mean±SEM). 4C, a pair of bar graphs showing percent inhibition of PARP-1 activity in microglia, macrophages or astrocytes activated with 15-HC or 7-KC […] in the presence of 5-AIQ. 4D, a table showing levels of TNF-α, CCL-2 and NO secretion by 15-HC or 7-KC treated microglia, macrophages or astrocytes (Mean±SEM).
The effect of 15-HC on the activity of cellular PARP-1 was then investigated. […] Thus, 15-HC activates microglia, macrophages and astrocytes through a PARP-1-dependent mechanism.

PARP-1 [4] = target: T2, PARP-1; assay: PARP-1 enzymatic activity in human PBMCs (PARP HT Universal Colorimetric Kit); type: cell-based; design: endogenous in cells; host or cells: human PBMCs / monocytes / dendritic cells / T and B cells from healthy controls and MS patients; details: healthy controls, 1 ug/ml 15-HC
Procedure: PARP-1 enzymatic activity (10A) and TNFalpha and CCL2 (10B) of PBMCs incubated with 15-HC alone, or in combination with AIQ, blocking antibodies to TLR2 or IC control.
To investigate whether the TLR2/PARP-1 axis is functional in human we activated PBMCs from healthy controls with 15-HC, in the presence or not of PARP-1 or TLR2 inhibitors.
Target sequence in this assay (P09874 whole entry): as the sequence (P09874 whole entry, species assumed) above

PARP-1 [5] = target: T1, PARP-1
Procedure: Microglia and astrocyte activation have been linked to the progressive phase of experimental SPMS (Basso et al., J Clin Invest 118, 1532-1543 (2008)), thus the activation of PARP-1 was analyzed in the CNS of NOD mice during the progressive phase of EAE.
Spinal cord tissue samples from MOG-immunized NOD mice with or without AIQ treatment were collected at day 55, fixed in 4% paraformaldehyde, cryoprotected in 20% sucrose, and frozen in OCT. Spinal cord frozen sections were cut at 10 μm and processed for histological analysis, immunohistochemistry, or immunofluorescence. […] For image analysis, 3 or 4 lumbar spinal cord sections were selected according to regional landmarks from 4 different animals per group. Image analysis was performed using the software ImageJ (NIH). For quantification, level of labeling “threshold” was used as a cut-off to determine positive or negative staining Immunofluorescence was performed using anti-Iba-1 (Wako, VA, USA), anti-GFAP (BD Bioscience, MA, USA) and anti PAR (Trevigen, MD, USA)

[6] = system: NOD mice (experimental SPMS); assay: NOD experimental model of SPMS (MOG35-55 EAE), clinical score and spinal cord histology; type: in vivo, mouse
Procedure: 2A, a line graph showing the results of AIQ treatment when experimental SPMS was induced in ten-week old NOD mice by subcutaneous immunization with […] of MOG35-55 in CFA and Pertussis toxin (150 ng per mouse) given at the time of immunization and 48 hours later. AIQ (3 mg/Kg body weight) was given daily beginning on day 0, n=10 animals per group. A control group was treated with PBS. 2B, a pair of line graphs showing the results of regression analysis of EAE progression (top panel—acute phase, bottom panel—chronic phase). 2C, four images from histopathological analysis of EAE in NOD mice.
This experimental model of SPMS was used to analyze the levels of 15-oxysterols at peak of the acute EAE attack (day 18) and during the progressive phase of EAE (day 55).
150 ng/mouse of pertussis toxin (Sigma) were administered intraperitoneally on days 0 and 2. Clinical signs of EAE were assessed according to the following score: 0, no signs of disease; 1, loss of tone in the tail; 2, hind limb paresis; 3, hind limb paralysis; 4, tetraplegia; 5, moribund.
Image analysis was performed using the software ImageJ (NIH).

splenocytes = assay: Adaptive encephalitogenic recall response of splenocytes from treated mice (proliferation, cytokines); type: in vivo, mouse; details: AIQ vs control-treated mice
Procedure: FIG. 7 is a set of eight bar graphs showing that the adaptive encephalitogenic immune response is not affected by the inhibition of PARP-1. Splenocytes prepared from control or AIQ-treated mice were activated in vitro with MOG35-55 (right column) or antibodies to CD3 (left column) and the cytokines levels were tested on the supernatant at 48 hours. Top row, IFN-gamma Second row, IL-17. Third row, IL-10. Bottom row, TGF-beta.
Splenocytes and lymph node cells were cultured in X-VIVO medium and plated at 5×10^5 cells per well in the presence of MOG35-55 for 72 hours. During the last 16 hours, cells were pulsed with 1 μCi of [^3H]-thymidine (PerkinElmer) followed by harvesting on glass fiber filters and analysis of incorporated [^3H]-thymidine in a beta-counter (1450 Microbeta, Trilux; PerkinElmer). Supernatants were collect after 48 h of culture for cytokine measurements by ELISA.

PARP-1 [7] = target: T2, PARP-1; assay: FACS-based detection of PARP-1 activity (PAR staining) in human monocytes / PBMCs; type: cell-based; design: endogenous in cells; host or cells: human PBMCs / monocytes / dendritic cells / T and B cells from healthy controls and MS patients; details: human monocytes activated by 15-HC
Procedure: FIGS. 11A-B are show the results of FACS-based detection of PARP-1 activity. 11A. a set of five histograms showing PAR staining (as detected by FACS) of PBMCs incubated with 15-HC alone, or in combination with AIQ, blocking antibodies to TLR2 (TLR2 BL), or IC control (TLR2 IC). 11B, a line graph showing the correlation of PAR staining as detected by FACS with PARP-1 enzymatic activity detected on PBMCs activated with different concentration of 15-HC.
14A is a set of fifteen histograms showing PAR staining of PBMCs taken from HC (left column), RRMS (center column) or SPMS (right column) patients and unstimulated (top row) or activated with 15-HC alone (second row), or in combination with AIQ (third row), blocking antibodies to TLR2 (fourth row) or IC control (bottom row). 14B is a bar graph showing the mean fluorescence intensity (MFI)±SD of 5 samples/group from the histograms in 14A.
15A is a set of 24 histograms showing PAR staining of PBMCs taken from HC (left column), RRMS (center column) or SPMS (right column) patients and unstimulated (top row) or activated with pgLPS (second row), polyIC (third row), ecLPS (fourth row), flagellin (row 5), imiquimod (row 6), ssRNA (row 7) or CpG (row 8). 15B is a bar graph showing the mean fluorescence intensity (MFI)±SD of 5 samples/group from the histograms in […].
A new FACS-based method was developed to detect PARP-1 activation based on the intracellular detection of the PARP-1 product PAR with specific antibodies. Briefly, the cells were incubated with antibodies to CD16/32 to block unspecific antibody binding, and then stained for surface markers. After washing, the cells were permeabilized with Fix/Perm (BD), and then stained with rabbit anti-PAR antibodies (or control rabbit IgG) for 30′ at 4° C., followed by anti-rabbit PE for 30′ at room temperature. The samples were then analyzed by FACS.
Target sequence in this assay (P09874 whole entry): as the sequence (P09874 whole entry, species assumed) above

[8] = NOD mice, AIQ 3 mg/Kg body weight daily from day 0, vs PBS
[9] = spinal cord sections, day 55, progressive phase of NOD EAE

T1 sequence (P11103 whole entry): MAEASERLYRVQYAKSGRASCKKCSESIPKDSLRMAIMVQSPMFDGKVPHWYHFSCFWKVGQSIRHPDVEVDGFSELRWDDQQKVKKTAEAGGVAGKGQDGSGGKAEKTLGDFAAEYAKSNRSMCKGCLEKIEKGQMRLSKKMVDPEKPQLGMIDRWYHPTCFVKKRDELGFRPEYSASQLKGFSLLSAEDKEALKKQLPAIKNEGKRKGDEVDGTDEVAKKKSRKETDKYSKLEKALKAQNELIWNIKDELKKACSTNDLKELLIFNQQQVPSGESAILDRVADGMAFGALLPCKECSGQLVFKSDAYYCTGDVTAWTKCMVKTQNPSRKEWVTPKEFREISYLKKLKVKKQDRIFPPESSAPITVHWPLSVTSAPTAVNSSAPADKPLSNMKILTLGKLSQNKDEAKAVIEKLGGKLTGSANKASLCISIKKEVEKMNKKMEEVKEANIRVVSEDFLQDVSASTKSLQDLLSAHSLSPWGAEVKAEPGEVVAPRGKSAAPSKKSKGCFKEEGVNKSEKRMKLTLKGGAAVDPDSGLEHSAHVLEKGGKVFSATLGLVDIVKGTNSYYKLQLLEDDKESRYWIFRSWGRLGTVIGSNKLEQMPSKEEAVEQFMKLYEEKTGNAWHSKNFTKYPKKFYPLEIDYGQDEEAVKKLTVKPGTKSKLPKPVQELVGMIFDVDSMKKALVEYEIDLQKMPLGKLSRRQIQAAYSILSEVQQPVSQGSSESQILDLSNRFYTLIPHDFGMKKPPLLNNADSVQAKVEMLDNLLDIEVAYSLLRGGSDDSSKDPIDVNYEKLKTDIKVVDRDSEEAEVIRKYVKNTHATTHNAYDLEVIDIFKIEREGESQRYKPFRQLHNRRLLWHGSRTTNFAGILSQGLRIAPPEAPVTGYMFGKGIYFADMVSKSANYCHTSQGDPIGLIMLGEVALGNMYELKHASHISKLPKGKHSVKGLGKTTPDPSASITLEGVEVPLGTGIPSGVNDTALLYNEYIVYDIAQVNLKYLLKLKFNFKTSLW

**Q.** For `CC(C)CCC[C@@H](C)[C@H]1CC[C@H]2[C@@H]3C(=O)C=C4C[C@@H](O)CC[C@]4(C)[C@H]3CC[C@]12C` [7-KC, 7-ketocholesterol, reference compound], which “incubation time resulting in activation of PARP-1” value (PARP-1 [1]; macrophages or microglia) is on record?
**A.** longer incubation times were required

**Q.** And the “activation of the nuclear enzyme PARP-1” value (PARP-1 [2])?
**A.** activate

**Q.** Which results are given for `Nc1cccc2c(=O)[nH]ccc12` [AIQ, 5-aminoisoquinolinone]?
**A.** inhibition of 15-HC-induced secretion of NO, CCL-2 and TNF-α [3]: could be inhibited; inhibition of 15-HC-induced PARP-1 enzymatic activity in human PBMCs (PARP-1 [4]): can be inhibited; inhibition of PARP-1 activation by 15-HC (PARP-1 [1]; microglia, macrophages or astrocytes activated with 15-HC): could be inhibited; PARP-1 activity in CNS CD11b+ cells (PARP-1 [5]; cells isolated at day 55 from AIQ or control-treated mice): inhibition; PARP-1 activation in CNS (PAR staining) (PARP-1 [5]; progressive phase of NOD EAE, data not shown): decreased; clinical signs of progressive EAE [6, 8]: significant inhibition; effect on the acute phase of EAE [6, 8]: little or no effect; axonal loss (Bielschowsky's silver staining) [6, 9]: significant decrease; also recorded: significantly reduced; demyelination (luxol fast blue) [6, 9]: significant decrease; also recorded: significantly reduced; proliferative recall response of splenocytes (splenocytes; activation with MOG35-55 or antibodies to CD3): No statistical differences; profile of cytokine secretion of splenocytes (splenocytes; supernatants at 48 h, IFN-gamma, IL-17, IL-10, TGF-beta): no differences; blockade of 15-HC-induced PAR staining (FACS) (PARP-1 [7]): could be blocked
